# Results as given in patent publication US8536180B2, “Pyrimidine inhibitors of kinase activity” (AbbVie Inc., priority 2009, dated 2013).
# Molecular target: T1, C-terminal GST-tagged, recombinant, human IGF-1R, amino acids 954-1367 (Homo sapiens, UniProt P08069)
# T1 construct: human IGF-1R, amino acids 954-1367 expressed by baculovirus in Sf21 cells; GST (C); purchased Cell Signaling Technology; host or cells: baculovirus in Sf21 cells
# Assay: IGF-1R homogenous time-resolved fluorescence (HTRF) in vitro kinase assay
# Format: biochemical
# Details: IGF-1R kinase, ATP 50 μM final, biotinylated peptide substrate 0.5 μM, 60 minutes at room temperature
# Procedure: IGF-1R kinase activity was assayed by a homogenous time-resolved fluorescence (HTRF) in vitro kinase assay (Mathis, G., HTRF(R) Technology. J Biomol Screen, 1999. 4(6): p. 309-314). Specifically, 10 μL C-terminal GST-tagged, recombinant, human IGF-1R, amino acids 954-1367 expressed by baculovirus in Sf21 cells (Cell Signaling Technology) was mixed with 10 μL inhibitor (various concentrations, 2% final DMSO) and 10 μL of ATP (50 μM final concentration) in reaction buffer (50 mM HEPES, pH 7.5, 10 mM MgCl2, 2 mM MnCl2, 0.1% BSA and 1 mM DTT, 40 μL final volume). The reaction was initiated by addition of 10 μL of biotinylated peptide substrate (Biotin-Ahx-[…], 0.5 μM final concentration) in a black 384-well plate (Packard). After 60 minutes incubation at room temperature, the reaction was quenched by addition of 60 μL stop/revelation buffer to give 30 mM EDTA, 1 μg/mL streptavidin-APC (Prozyme), 50 ng/mL anti-phosphotyrosine mAb PT66-K Europium Cryptate, 30 mM HEPES, pH 7.5, 120 mM KF, 0.005% Tween-20, 0.05% BSA). The quenched reaction was allowed to stand at room temperature for 1 hour and then read in a time-resolved fluorescence detector (Envision, Perkin Elmer) at 615 nm and 665 nm simultaneously. The ratio between the signal of 615 nm and 665 nm was used in the calculation of the IC50.
# T1 sequence (P08069 954-1367): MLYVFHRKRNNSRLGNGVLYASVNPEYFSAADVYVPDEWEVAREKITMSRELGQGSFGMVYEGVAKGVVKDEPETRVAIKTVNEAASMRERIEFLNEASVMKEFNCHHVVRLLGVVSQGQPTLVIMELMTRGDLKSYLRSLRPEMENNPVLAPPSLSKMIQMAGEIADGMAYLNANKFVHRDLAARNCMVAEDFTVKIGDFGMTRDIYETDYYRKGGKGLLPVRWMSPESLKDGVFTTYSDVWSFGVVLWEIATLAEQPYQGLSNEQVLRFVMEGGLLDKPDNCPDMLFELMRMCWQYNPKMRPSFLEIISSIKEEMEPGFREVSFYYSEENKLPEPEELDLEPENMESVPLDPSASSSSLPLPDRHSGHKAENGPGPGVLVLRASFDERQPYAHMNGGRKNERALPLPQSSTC
row,SMILES,IC50 [nM]
1,"CCn1cc(-c2ccnc(Nc3ccc(N4CCC(N(C)C)CC4)cc3OC)n2)c(-c2ccc3[nH]c(-c4ccccc4)nc3c2)n1 [Example 69, N-{4-[4-(dimethylamino)piperidin-1-yl]-2-methoxyphenyl}-4-[1-ethyl-3-(2-phenyl-1H-benzimidazol-5-yl)-1H-pyrazol-4-yl]pyrimidin-2-amine]",101 to 500
2,"O=C1CCCN1c1cccc(Nc2nccc(-c3c(-c4ccc5[nH]c(Cc6ccccc6)nc5c4)nc4ccccn34)n2)c1 [Example 1, 1-[3-({4-[2-(2-benzyl-1H-benzimidazol-5-yl)imidazo[1,2-a]pyridin-3-yl]pyrimidin-2-yl}amino)phenyl]pyrrolidin-2-one]",10 to 50
3,"c1ccc(Cc2nc3ccc(-c4nc5ccccn5c4-c4ccnc(Nc5cc(C6CC6)n[nH]5)n4)cc3[nH]2)cc1 [Example 26, 4-[2-(2-benzyl-1H-benzimidazol-6-yl)imidazo[1,2-a]pyridin-3-yl]-N-(3-cyclopropyl-1H-pyrazol-5-yl)pyrimidin-2-amine]",10 to 50
4,"COc1ccc(C(F)(F)F)cc1Nc1nccc(-c2c(-c3ccc4nc(Cc5ccccc5)[nH]c4c3)nc3ccccn23)n1 [Example 45, 4-[2-(2-benzyl-1H-benzimidazol-6-yl)imidazo[1,2-a]pyridin-3-yl]-N-[2-methoxy-5-(trifluoromethyl)phenyl]pyrimidin-2-amine]",101 to 500
5,"CCn1cc(-c2ccnc(Nc3cccc(CN(C)C)c3)n2)c(-c2ccc3[nH]c(Cc4ccccc4OC)nc3c2)n1 [Example 60, N-{3-[(dimethylamino)methyl]phenyl}-4-{1-ethyl-3-[2-(2-methoxybenzyl)-1H-benzimidazol-5-yl]-1H-pyrazol-4-yl}pyrimidin-2-amine]",10 to 50

# Next, values leading:
row,IC50 [nM],SMILES
1,> 500,"Fc1ccc(Nc2nccc(-c3c(-c4ccc5nc(-c6ccccc6)[nH]c5c4)nc4ccccn34)n2)c(F)c1 [Example 40, N-(2,4-difluorophenyl)-4-[2-(2-phenyl-1H-benzimidazol-6-yl)imidazo[1,2-a]pyridin-3-yl]pyrimidin-2-amine]"
2,51 to 100,"Fc1ccc(Nc2nccc(-c3c(-c4ccc5[nH]c(Cc6ccccc6)nc5c4)nc4ccccn34)n2)cc1 [Example 39, 4-[2-(2-benzyl-1H-benzimidazol-5-yl)imidazo[1,2-a]pyridin-3-yl]-N-(4-fluorophenyl)pyrimidin-2-amine]"
3,10 to 50,"CN(C)Cc1ccc(Nc2nccc(-c3c(-c4ccc5nc(Cc6ccccc6C(F)(F)F)[nH]c5c4)nc4sccn34)n2)cc1 [Example 46, N-{4-[(dimethylamino)methyl]phenyl}-4-(6-{2-[2-(trifluoromethyl)benzyl]-1H-benzimidazol-6-yl}imidazo[2,1-b][1,3]thiazol-5-yl)pyrimidin-2-amine]"
4,10 to 50,"c1ccc(Cc2nc3cc(-c4nc5ccccn5c4-c4ccnc(Nc5ccccc5)n4)ccc3[nH]2)cc1 [Example 4, 4-[2-(2-benzyl-1H-benzimidazol-5-yl)imidazo[1,2-a]pyridin-3-yl]-N-phenylpyrimidin-2-amine]"
5,10 to 50,"CCn1cc(-c2ccnc(Nc3cccc(CN(C)C)c3)n2)c(-c2ccc3[nH]c(Cc4ccccc4Cl)nc3c2)n1 [Example 61, 4-{3-[2-(2-chlorobenzyl)-1H-benzimidazol-5-yl]-1-ethyl-1H-pyrazol-4-yl}-N-{3-[(dimethylamino)methyl]phenyl}pyrimidin-2-amine]"
6,< 10,"CN(C)Cc1ccc(Nc2nccc(-c3c(-c4ccc5nc(Cc6ccccc6)[nH]c5c4)nc4sccn34)n2)cc1 [Example 57, 4-[6-(2-benzyl-1H-benzimidazol-6-yl)imidazo[2,1-b][1,3]thiazol-5-yl]-N-{4-[(dimethylamino)methyl]phenyl}pyrimidin-2-amine]"
7,10 to 50,"CN(C)CCc1cccc(Nc2nccc(-c3c(-c4ccc5nc(-c6ccccc6)[nH]c5c4)nc4ccccn34)n2)c1 [Example 13, N-{3-[2-(dimethylamino)ethyl]phenyl}-4-[2-(2-phenyl-1H-benzimidazol-6-yl)imidazo[1,2-a]pyridin-3-yl]pyrimidin-2-amine]"
